Results published in US5654451A, “Amino acids and peptides having modified C-terminals and modified N-terminals” (Magainin Pharmaceuticals Inc., priority 1995, dated 1997).
≈ marks a conversion by molar mass, not a printed value. Where “and” joins values, the source holds several entries; their conditions need not be identical. Equal entries are not always repeated.

Tests used:
Assay in all cases: Antimicrobial assay (MIC, microtiter broth dilution)
Assay type in all cases: cell-based
[1] = test system: C. albicans; details: for MIC Candida: Table VI; for MIC C. albicans: Table I
Description: (§1) The procedure for the antimicrobial assay is based upon the guidelines of the National Committee for Clinical Laboratory Standards, Document M7-T2, Volume 8, No. 8, 1988.
(§2) 1-5×10^5 CFUs/ml of either S. aureus ATCC 25923, E. coli ATCC 25922, P. aeruginosa ATCC 27853, or C. albicans were added to the wells in full strength Mueller Hinton broth (BBL 11443) from a mid-log culture. The inoculum is standardized spectrophotometrically at 600 nm and is verified by colony counts. The plates are incubated for 16-20 hours at 37° C., and the minimal inhibitory concentrations (MIC) for the compounds are determined. Minimal inhibitory concentration is defined as the lowest concentration of amino acid or peptide which produces a clear well in the microtiter plate.

[2] = test system: E. coli
Description: as §1, §2

[3] = test system: P. aeruginosa; details: for MIC Psuedo: Table VI; for MIC P aeruginosa: Table I, P. aeruginosa ATCC 27853
Description: as §1, §2

[4] = test system: S. aureus; details: for MIC Staph: Table VI; for MIC S. aureus: Table I, S. aureus ATCC 25923
Description: as §1, §2

Compound	MIC Candida [1]	MIC E. coli ([2]; Table VI) [µg/mL]	MIC Psuedo [3]	MIC Staph [4] [µg/mL]	MIC C. albicans [1] [µg/mL]	MIC E. coli ([2]; Table I, E. coli ATCC 25922) [µg/mL]	MIC P aeruginosa [3] [µg/mL]	MIC S. aureus [4] [µg/mL]
CCCCCCCCN(CCCCCCCC)C(=O)C(Cc1ccc(F)cc1)NC(=N)N (stereo not drawn) [Compound 83, N^α -Amidino-p-F-Phe-diocytlamide]	2 µg/mL (≈ 4.46 µM)	64 (≈ 143 µM)	128 µg/mL (≈ 285 µM)	2 (≈ 4.46 µM)				
β-Guanidino-propionyl dodecylamide [Compound 37]	4 µg/mL	4 to 8	16 µg/mL	1				
CCCCCCCCN(CCCCCCCC)C(=O)[C@H](Cc1ccccc1)NC(=O)CC(O)CNC(=N)N (stereo partly drawn) [Compound 85, γ-Guanidino-β-hydroxy butyryl-Phe-dioctylamide]	0.5 µg/mL (≈ 0.94 µM)	32 (≈ 60.2 µM)	64 µg/mL (≈ 120 µM)	1 (≈ 1.88 µM)				
CCCCCCCCN(CCCCCCCC)C(=O)C(N)Cc1ccccc1 (stereo not drawn) [Compound 81, Phe-dioctylamide]	> 256 µg/mL	> 256	> 256 µg/mL	4 (≈ 10.3 µM)				
CCCCCCCCN(CCCCCCCC)C(=O)[C@@H](Cc1ccccc1)NC(=N)N [Compound 70, N^α -Amidino-D Phe-dioctylamide]	2 µg/mL (≈ 4.64 µM)	64 (≈ 149 µM)	256 µg/mL (≈ 594 µM)	2 (≈ 4.64 µM)				
NC(N)=NCCCC(N)C(=O)NCCCCCCCCCCCCNC(=O)C(N)CCCN=C(N)N (stereo not drawn) [Compound 8, 1,12-[di-arginyl]diaminododecane]					> 256	> 256	> 256	128 (≈ 250 µM)
phenylalanyl heptylamide [Compound 26]					128	128	> 256	256
N^α -Amidino-Phe-didecylamide [Compound 69]	32 µg/mL and 64 µg/mL	16	> 256 µg/mL and 256 µg/mL					
p-Guanidino methyl-benzoyl dioctylamide [Compound 72]	0.5 µg/mL	4	64 µg/mL	1				
N-α-amidino phenylalanyl hexadecylamide [Compound 34]					64	> 256	> 256	32
CCCCCCCCN(CCCCCCCC)C(=O)C(Cc1cnc[nH]1)NC(=N)N (stereo not drawn) [Compound 78, N^α -Amidino-His-dioctylamide]	1 µg/mL (≈ 2.38 µM)	4 (≈ 9.51 µM)	8 µg/mL (≈ 19 µM)	1 (≈ 2.38 µM)				
γ-Guanidino-butyryl dioctylamide [Compound 71]	< 0.25 µg/mL	4	32 µg/mL	0.5 to 1.0				
CCCCCCCCN(CCCCCCCC)C(=O)CC(O)CNC(=N)N (stereo not drawn) [Compound 84, γ-Guanidino-β-hydroxy butyrul dioctylamide]	0.5 µg/mL (≈ 1.3 µM)	4 (≈ 10.4 µM)	16 µg/mL (≈ 41.6 µM)	1 (≈ 2.6 µM)				
CCCCCN(CCCCC)C(=O)C(Cc1ccccc1)NC(=N)N (stereo not drawn) [Compound 67, N^α -Amidino-Phe-dipentylamide]	64 µg/mL (≈ 185 µM)	64 (≈ 185 µM)	128 µg/mL (≈ 369 µM)	4 (≈ 11.5 µM)				
β-Guanidino-propionyl adamantanamide [Compound 82]	> 256 µg/mL	> 256	> 256 µg/mL	64				
β-Guanidino-propionyl dioctylamide [Compound 75]	1.0 µg/mL	4 to 8	16 µg/mL	0.5 to 1.0				
N=C(N)NC(Cc1ccccc1)C(=O)Nc1ccc(C=Cc2ccc(NC(=O)C(Cc3ccccc3)NC(=N)N)cc2)cc1 (stereo not drawn) [Compound 47, 4,4'-[Di-(N^α -amidino-Phe)] diaminostilbene]	256 µg/mL (≈ 435 µM)	16 (≈ 27.2 µM)	32 µg/mL (≈ 54.4 µM)	05 to 10				
CCCCCCCCN(CCCCCCCC)C(=O)CCCCNC(=N)N [Compound 79, S-Guanidino Valeryl-dioctylamide]	1 to 2 µg/mL	8 (≈ 20.9 µM)	> 256 µg/mL	2 (≈ 5.23 µM)				
CCCCCCCNC(=O)C(Cc1ccc(C(=N)N)cc1)NC(=N)N (stereo not drawn) [Compound 29, p-guanyl-N-α-amidino-phenylalanyl heptylamide]					256 (≈ 739 µM)	> 256	> 256	64 (≈ 185 µM)
CCCCCCCCN(CCCCCCCC)C(=O)C(Cc1ccc2ccccc2c1)N=C(N)N (stereo not drawn) [Compound 73, N^α -Amidino-β-Nal-dioctylamide]	4 µg/mL (≈ 8.32 µM)	> 256	> 256 µg/mL	4 (≈ 8.32 µM)				
N-α-amidino phenylalanyl heptylamide [Compound 27]					64	128	128	8
CCCCCCCCCCCCNC(=O)c1ccc(CNC(=N)N)cc1 [Compound 38, P-Guanidino-methyl-benzoyl-dodecylamide]	4 µg/mL (≈ 11.1 µM)	16 (≈ 44.4 µM)	64 µg/mL (≈ 178 µM)	1 to 2				
CCCCCCCCN(CCCCCCCC)C(=O)CCNC(=O)CC(O)CNC(=N)N (stereo not drawn) [Compound 87, γ-Guanidino-β-hydroxy butyryl-β-Ala-dioctylamide]	0.5 µg/mL (≈ 1.1 µM)	4 (≈ 8.78 µM)	16 µg/mL (≈ 35.1 µM)	2 (≈ 4.39 µM)				
CCCCCCCCN(CCCCCCCC)C(=O)C(Cc1ccccc1)NCc1ncc[nH]1 (stereo not drawn) [Compound 80, N^α -(Imidazole-2-methyl)-Phe-dioctylamide]	> 256 µg/mL	> 256	> 256 µg/mL	2 (≈ 4.27 µM)				
N=C(N)NC(Cc1ccccc1)C(=O)NC12CC3CC(CC(C3)C1)C2 (stereo not drawn) [Compound 76, N^α -Amidino-Phe-adamantanamide]	128 µg/mL (≈ 376 µM)	256 (≈ 752 µM)	256 µg/mL (≈ 752 µM)	16 (≈ 47 µM)				
N-α-amidino-phenylalanyl dodecylamide [Compound 31]					4	8	64	2
NC(N)=NCCCC(N)C(=O)Nc1ccc(C=Cc2ccc(NC(=O)C(N)CCCN=C(N)N)cc2)cc1 (stereo not drawn) [Compound 49, 4,4'-[Di-Arg] diaminostilbene]	64 µg/mL (≈ 122 µM)	256 (≈ 490 µM)	128 µg/mL (≈ 245 µM)	8 (≈ 15.3 µM)				
N=C(N)NC(Cc1ccccc1)C(=O)NC1CCCCC1 (stereo not drawn) [Compound 77, N^α -Amidino-Phe-cyclohexylamide]	> 256 µg/mL	> 256	> 256 µg/mL	128 (≈ 444 µM)				
